# Source: patent US20150182472A1, “DENATURED LACTOGLOBULIN AND POLYPHENOL COASSEMBLIES” (TECHNION RESEARCH AND DEVELOPMENT FOUNDTION LTD., priority 2010, published 2015)
# How the values were obtained:
# [1] = Particle size distribution by dynamic light scattering (DLS); assay type: physicochemical
# Procedure: Dynamic light scattering was used to evaluate size distribution of the nanocomplexes formed, and that of the pure protein. To produce particles containing the EGCG:β-Lg molar ratios 2:1, 4:1, 6:1, 8:1 and 10:1, two experiments were performed: • (1) β-Lg solution (0.54 mM, in 0.9 ml of 30 mM PBS, pH 7) was heated to 75° C. for 20 minutes, and then EGCG solutions (1.96 mM-10.25 mM, in 0.48 ml of 5 mM PBS, pH 2.5) were added. […] The final EGCG concentrations were 0.87 mM-4.36 mM (0.04%-0.2%), the final β-Lg concentration was 0.43 mM (0.8%) and the pH of the final solution was 6.88.
# After polyphenol addition, samples were vortexed for 20 seconds and allowed to cool to room temperature before measurement.
# Particle size distribution was studied by a dynamic light scattering (DLS) analyzer (NICOMP™ 380, Particle Sizing Systems Inc., Santa Barbara, Calif., USA) equipped with an Avalanche Photo Diode (APD) detector, used at a fixed angle of 90°. The 90 mW laser wavelength was 658 nm. Mono- bi- or tri-modal distributions were calculated from the scattered light intensity fluctuations, by cumulants Nicomp™ analysis of the auto correlation function (see supplementary information in (Shapira, Assaraf, & Livney, 2009) for a more complete method description). The size range for the Nicomp distribution analysis was set to 1-1,000 nm. Measurements were made in duplicates at 25° C. Table 3 and FIG. 7 show an increase in particle size with increasing EGCG concentration indicating the formation of preheated complexes/nanoparticles (75° C., 20 min before EGCG addition). The molar ratios of β-Lg to EGCG presented in FIG. 7 are: 1:0 (straight line), 1:2 (dotted line), 1:4 (broken line), 1:6 (bold line/dot/line; ? ), 1:8 (fine line/dot/line; ? ) and 1:10 (line/2 dots; ? ).
# As detailed above, EGCG-β-Lg nanoparticles at neutral pH are smaller than 50 nm. In order to determine whether the addition of EGCG to the preheated β-Lg causes, in addition to a slight increase in size, a change in colloidal stability, different EGCG concentration solutions were added to the pre-heated β-Lg to create nano-complexes comprised of β-Lg:EGCG at molar ratios in the range of 1:0 to 1:8, while the β-Lg concentration remains constant at a neutral pH (6.8).
# The size distribution of the nano-particles solution seemed to consist of two fractions. The first fraction included the small nano-particles in the range of 2-3 nm in diameter and the second fraction included nano-particles of about 15 nm. Since the size of the protein molecule is around 2 nm, it would be reasonable to assume that the smaller-size fraction represents unbound protein molecules or protein molecules with a few bound EGCG molecules, while the larger-size fraction represents complexes comprising several protein molecules, and probably also several EGCG molecules. […] It was important to see whether the increase in the fraction of the larger sized complexes causes a decrease in colloidal stability. Therefore the predicted stability of the same complexes was studied by measuring the electrophoretic mobility (EM) of the nanocomplexes (FIG. 9B). For uniform and moderate electric fields, a linear relationship usually exists between the steady-state electrophoretic mobility and the zeta potential value (Delgado, et al. (2007) Journal of Colloid and Interface Science, Vol. 309, pages 194-224). The zeta potential is calculated according to the measured electrophoretic mobility using several theoretical models available. The choice of a suitable model is carried out according to the ratio of the particle radius (a) and the Debye length (κ−1) (i.e. a/κ−1=κ*a) which characterize the studied composition. […] In the composition of the invention for the smaller particles (of ˜2-3 nm) the κ*a was approximately 1.5. For the larger complexes of about 15 nm, the κ*a value was approximately 7.5. […]
# [2] = target: T1, preheated β-Lg (75° C., 20 min) (Bos taurus, UniProt P02754); experiment: Intrinsic protein fluorescence quenching: binding of EGCG to preheated β-Lg (Langmuir-based model and modified Stern-Volmer); design: species or system bovine; conditions: for KSVa ± S.E. (Stern-Volmer quenching constant) / fa ± S.E. (fraction of fluorophore-sites accessible): preheated 20 min 75° C.; for Ka ± S.E.: protein preheated 20 min 75° C. before adding EGCG
# T1 construct: Beta-lactoglobulin (β-Lg, 18.4 kDa, 162 amino acids) is the major whey protein in cow milk; purchased
# T1 sequence (P02754 17-178): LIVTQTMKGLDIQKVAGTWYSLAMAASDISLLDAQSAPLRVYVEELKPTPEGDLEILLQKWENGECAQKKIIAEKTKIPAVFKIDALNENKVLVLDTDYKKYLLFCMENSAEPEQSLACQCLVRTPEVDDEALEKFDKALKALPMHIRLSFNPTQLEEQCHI
# Procedure: (§1) It is based on exciting at 280 nm the Trp and Tyr residues of bovine β-Lg (bovine β-Lg contains two Trp residues and four Tyr residues) and at 295 nm where only Trp residues are excited though the quantum yield of the Trp itself is smaller than that at 280 nm.
# (§2) All fluorescence measurements were performed at room temperature. β-Lg solution (2.09 μM in 1.9 ml of 30 mM PBS, pH 6.86) was heated at 75° C. for 20 minutes, or kept at room temperature. The co-assembly preparation process was done as described above. All measurements were performed after equilibrating the solutions at room temperature for 3 hours. EGCG solutions were 0-400 μM in 0.1 ml of 30 mM PBS, pH 2.44. All samples were prepared in triplicates. The pH of the final solutions was 6.86. β-Lg fluorescence was measured at constant protein concentration of 2 μM and EGCG concentrations of 0-20 μM using a Fluorolog 3-22 spectrofluorometer (Horiba, Jobin Yvon, Longjumeau, France) at a Right-Angle mode. Emission spectra were recorded from 290 to 510 nm with an excitation wavelength of 280 nm, and from 305 to 520 nm with an excitation wavelength of 295 nm, employing 5 nm slit widths. The statistical analysis and non-linear curve fitting were performed using Origin 8 (OriginLab, Northampton, USA).
# (§3) Trp61 is reportedly quenched in the native state due to proximity to the Cys66-Cys160 disulfide bond, while Trp 19 is located in a non-polar environment within the cavity of the β-barrel structure, and is responsible for most of the Trp (and the protein) fluorescence. A small shift in the maximal emission wavelength of the protein occurred upon heating and was more clearly observed at the excitation wavelength attributed to Trp alone (295 nm). As only small shifts in the maximal wavelength occurred, all analyses were performed at emission of 343 nm for both excitation wavelengths. When studying the binding of EGCG to β-LG by fluorescence, it is important to keep in mind that EGCG, and not only β-LG, absorbs energy, both at the protein's excitation and, to a lower extent, at the emission wavelengths. Consequently, an inner filtering effect occurs, which intensifies with increasing EGCG concentration, reducing the amount of available energy to excite the protein' s fluorescent groups and absorbing some of the emitted energy too. To overcome this effect, the emission at 343 nm was corrected according to Beer-Lambert's law, using equation 1:
# (§4) F=Fu·10^QL(ε^λex^+ε^λem^) (Equation 1)
# (§5) where Fu is the measured, uncorrected emission intensity, ελex and ελem—the molar extinction coefficients of EGCG at the excitation and emission wavelengths respectively (measured spectrophotometrically, in the same buffer), Q is the quencher (EGCG) concentration in the cell and L is the path length assumed to be 0.5 cm each for the excitation and emission.
# (§6) The analysis for determination of the binding constants was performed using a Langmuir-based model, assuming one affinity-class of binding sites, as described by equation (2): […]
# (§7) where F and F0 are the fluorescence intensities of the protein solution in the presence and in the absence of the ligand, respectively; F∞ is the fluorescence when the protein is saturated with the ligand and L0 is the total ligand concentration. The decrease in the fluorescence in the presence of different EGCG concentrations was recorded, and the association constant (Ka) as well as the value for maximum fluorescence difference (ΔFmax=F0−F∞) were calculated by non-linear curve fitting to equation 2 (FIG. 5). The parameters for the fitting were based on the quenching of Tyr and Trp fluorescence at pH 6.87, for β-Lg concentration of 2 μM.
# (§8) Fluorescence quenching is often described by the Stern-Volmer equation (3): […]
# (§9) where F0 and F are the fluorescence intensities before and after the addition of the quencher, respectively, KSV is the Stern-Volmer quenching constant and [Q] is the concentration of the quencher. […]
# native β-Lg = target: T2, native β-Lg (Bos taurus, UniProt P02754); experiment: Intrinsic protein fluorescence quenching: binding of EGCG to native β-Lg (Langmuir-based model and modified Stern-Volmer); design: species or system bovine; conditions: without preheating (RT)
# T2 construct: Beta-lactoglobulin (β-Lg, 18.4 kDa, 162 amino acids) is the major whey protein in cow milk; purchased
# T2 sequence (P02754 17-178): T1 sequence (P02754 17-178)
# Procedure: as §1, §2, §3, §4, §5, §6, §7, §8, §9
# [3] = Protection against EGCG oxidation: absorbance at 425 nm over time; assay type: physicochemical
# Procedure: Aliquots of 2.5 ml EGCG solution were transferred to 1 cm path length spectrophotometer cuvettes and covered with parafilm to prevent evaporation. […] Solutions of 0.52 mM (0.95%) protein at a 2:1 molar ratio (EGCG:protein) and pH 6.85 were compared to pure EGCG solutions. The protein was preheated at 2 temperatures (75° C. and 85° C.) for 20 minutes or kept at room temperature, to compare the protection provided by the partially denatured protein to that of the native protein. The reason for testing these two temperatures was that according to the literature, at about this pH, between 65-75° C. small proteins oligomers are formed, while between 75-85° C. some aggregation of the oligomers occurs. […] Appropriate controls of β-Lg without EGCG and EGCG without β-Lg at the respective concentrations and pH were performed. After preparation, the samples were placed in 1 cm path length spectrophotometer cuvettes and covered with parafilm. […]
# [4] = sodium phosphate buffer (pH 7.4); 3 hr; cited from earlier work
# [5] = Loading efficiency and loading ratio of EGCG by centrifugal ultrafiltration; assay type: physicochemical; conditions: both β-Lg concentrations (0.5% and 1% w/w)
# Procedure: The loading efficiency (the percentage of encapsulated substance out of total material added to the composition) and loading ratio (the ratio between the encapsulated substance and the encapsulation matrix) of EGCG was determined. β-Lg-EGCG nanoparticles solutions, of 2:1 and 8:1 EGCG: β-Lg molar ratios, were prepared at 1% w/w and 0.5% w/w protein solution. The entrapped EGCG in β-Lg nanoparticles was separated from the free EGCG by centrifugal ultrafiltration as described above. The molar loading ratio and the loading efficiency are presented on Table 4.
# [6] = β-Lg 0.35 mM (0.65% (w/w) pH 6.56)
# [7] = β-Lg 0.43 mM (0.8% (w/w) pH 6.56)
molecule,measurement,setting,value
"1:0: preheated β-lactoglobulin without EGCG (major whey protein in cow milk, 18.4 kDa)",size,[1]; rough summary of Table 3,around 2 nm
same,"d, Peak I (β-Lg)",[1]; [6],4.8 nm
same,"fvw, Peak I (β-Lg)",[1]; [6],99.6%
same,"d, Peak I (β-Lg)",[1]; [7],1.4 nm
same,"d, Peak II (β-Lg-EGCG)",[1]; [7],20.2 nm
same,"fvw, Peak I (β-Lg)",[1]; [7],99.8%
same,"fvw, Peak II (β-Lg-EGCG)",[1]; [7],0.2%
"O=C(O[C@@H]1Cc2c(O)cc(O)cc2O[C@@H]1c1cc(O)c(O)c(O)c1)c1cc(O)c(O)c(O)c1 [EGCG, (−)-Epigallocatechin-3-gallate]",KSVa ± S.E. (Stern-Volmer quenching constant),[2]; excitation 280 nm,3.31 ± 0.7 10^5 M^−1
same,fa ± S.E. (fraction of fluorophore-sites accessible),[2]; excitation 280 nm,0.32 ± 0.05
same,Ka ± S.E.,[2]; excitation 280 nm,3.7 ± 0.67 10^5 M^−1
same,KSVa ± S.E. (Stern-Volmer quenching constant),[2]; excitation 295 nm,3.07 ± 1.05 10^5 M^−1
same,fa ± S.E. (fraction of fluorophore-sites accessible),[2]; excitation 295 nm,0.25 ± 0.07
same,Ka ± S.E.,[2]; excitation 295 nm,3.3 ± 1.07 10^5 M^−1
same,"Ka (association constant, Langmuir-based model fit)","[2]; pH 6.87, β-Lg 2 μM, FIG. 5 fit",370000 ± 67000 M⁻¹
same,ΔFmax*10^6 (maximum fluorescence difference),"[2]; pH 6.87, β-Lg 2 μM, FIG. 5 fit",3.31±0.17
same,KSVa ± S.E. (Stern-Volmer quenching constant),native β-Lg; excitation 280 nm,1.4 ± 0.7 10^5 M^−1
same,Ka ± S.E.,native β-Lg; excitation 280 nm,1.05 ± 0.34 10^5 M^−1
same,fa ± S.E. (fraction of fluorophore-sites accessible),native β-Lg; excitation 280 nm,0.16 ± 0.07
same,KSVa ± S.E. (Stern-Volmer quenching constant),native β-Lg; excitation 295 nm,1.4 ± 0.7 10^5 M^−1
same,Ka ± S.E.,native β-Lg; excitation 295 nm,1.9 ± 0.6 10^5 M^−1
same,fa ± S.E. (fraction of fluorophore-sites accessible),native β-Lg; excitation 295 nm,0.15 ± 0.06
same,increase in the 425 nm absorbance with time,[3]; EGCG solution (0.05%) in pH 2.5 PBS,no increase
same,degradation rate (absorbance at 425 nm),"[3]; PBS pH 6.8, EGCG 0.05%-0.5%",degradation rate increased with rising EGCG concentration
same,EGCG degradation rate (increase in absorbance at 425 nm),"[3]; eight days at room temperature, EGCG 1.09 mM (0.05%), β-Lg 0.52 mM, pH 6.85",fastest increase in the absorbance
same,EGCG lost,[4],80%
Cn1c(=O)c2c(ncn2C)n(C)c1=O [caffeine],binding or entrapment in β-Lg,[5],did not show any binding or entrapment
